Results from patent US11578061B2, “Inhibitors of LRRK2 kinase” (Halia Therapeutics, Inc., priority 2021, dated 2023).

These compounds were tested against recombinant human LRRK2 (catalytic domain only [amino acids 970-2527], GST-tagged) (Homo sapiens (Human), UniProt Q5S007) (assay: LRRK2 Enzymatic Assay). Details: LRRKtide substrate, [32P]-ATP.
recombinant human LRRK2 (catalytic domain only [amino acids 970-2527], GST-tagged), sequence (Q5S007 970-2527): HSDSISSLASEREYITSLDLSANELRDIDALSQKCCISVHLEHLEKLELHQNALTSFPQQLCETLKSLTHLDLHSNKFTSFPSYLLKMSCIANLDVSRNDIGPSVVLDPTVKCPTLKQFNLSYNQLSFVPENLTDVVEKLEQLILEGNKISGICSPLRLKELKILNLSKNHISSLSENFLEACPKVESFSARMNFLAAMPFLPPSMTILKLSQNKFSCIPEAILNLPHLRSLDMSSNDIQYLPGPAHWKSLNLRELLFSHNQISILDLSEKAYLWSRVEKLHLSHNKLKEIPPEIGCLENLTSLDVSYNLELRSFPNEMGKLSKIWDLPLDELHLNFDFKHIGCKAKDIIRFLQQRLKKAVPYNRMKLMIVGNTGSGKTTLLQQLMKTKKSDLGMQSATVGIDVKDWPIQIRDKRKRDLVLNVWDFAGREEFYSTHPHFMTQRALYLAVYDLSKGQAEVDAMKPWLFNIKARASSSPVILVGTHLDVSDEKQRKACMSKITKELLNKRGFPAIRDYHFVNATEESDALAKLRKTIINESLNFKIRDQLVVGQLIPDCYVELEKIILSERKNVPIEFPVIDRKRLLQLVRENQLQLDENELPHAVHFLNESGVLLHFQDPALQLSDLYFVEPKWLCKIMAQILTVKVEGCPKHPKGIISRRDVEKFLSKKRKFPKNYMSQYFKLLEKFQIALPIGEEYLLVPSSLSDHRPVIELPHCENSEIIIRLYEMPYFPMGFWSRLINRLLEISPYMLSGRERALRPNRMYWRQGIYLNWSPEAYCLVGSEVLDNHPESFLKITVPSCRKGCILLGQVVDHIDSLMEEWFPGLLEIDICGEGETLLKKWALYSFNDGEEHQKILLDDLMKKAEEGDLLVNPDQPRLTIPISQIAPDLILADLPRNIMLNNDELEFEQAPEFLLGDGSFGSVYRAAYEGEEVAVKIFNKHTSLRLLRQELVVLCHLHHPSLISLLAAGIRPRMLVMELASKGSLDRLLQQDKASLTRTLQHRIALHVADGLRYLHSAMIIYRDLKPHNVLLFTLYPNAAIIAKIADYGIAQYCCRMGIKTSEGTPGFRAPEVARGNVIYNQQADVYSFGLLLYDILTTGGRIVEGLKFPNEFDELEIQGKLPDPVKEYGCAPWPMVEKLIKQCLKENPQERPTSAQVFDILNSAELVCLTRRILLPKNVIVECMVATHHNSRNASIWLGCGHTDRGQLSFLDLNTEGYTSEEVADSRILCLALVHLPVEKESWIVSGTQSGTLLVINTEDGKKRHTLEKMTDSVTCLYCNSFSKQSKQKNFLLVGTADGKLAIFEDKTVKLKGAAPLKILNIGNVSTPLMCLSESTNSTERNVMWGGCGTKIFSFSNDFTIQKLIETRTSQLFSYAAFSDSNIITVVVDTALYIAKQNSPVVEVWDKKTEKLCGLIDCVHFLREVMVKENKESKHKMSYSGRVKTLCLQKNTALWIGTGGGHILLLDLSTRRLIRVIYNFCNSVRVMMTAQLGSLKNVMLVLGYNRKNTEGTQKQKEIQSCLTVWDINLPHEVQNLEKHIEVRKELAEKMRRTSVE
Format: biochemical
Description: LRRKtide substrate (peptide sequence RLGRDKYKTLRQIRQ, derived from human ezrin [amino acids 561-573], moesin [amino acids 539-553] and radixin [amino acids 558-570], obtained from SignalChem, catalogue #L10-58, reconstituted in 20 mM Tris-HCl at pH 7.5 to a final concentration of 1 mg/mL, assay concentration 20 μM) and recombinant human LRRK2 (catalytic domain only [amino acids 970-2527], GST-tagged, expressed in insect cells, obtained from ThermoFisher Scientific, catalogue #PV4874, 0.35 mg/mL, assay concentration 30 nM) were mixed in assay buffer (20 mM Hepes pH 7.5, 10 mM MgCl2, 1 mM EGTA, 0.02% Brij35, 0.02 mg/ml BSA, 0.1 mM Na3VO4, 2 mM DTT, 1% DMSO). Compounds of interest (in DMSO, serial 3-fold dilution from 10 μM to 0.5 nM) or control (1% DMSO) were dispensed into the kinase reaction mixture by Acoustic technology (Echo550; nanoliter range). After incubation at room temperature for 20 minutes, the kinase reaction was initiated by addition of [^32P]-ATP (Specific activity 10 μCi/μl) and the mixture was incubated at room temperature for 2 hours. The reaction was then stopped by spotting the reaction mixture on strips of phosphocellulose P81 paper. Following washing, the radioactivity of the P81 paper was measured and kinase activity data were expressed as the percent remaining kinase activity in test samples compared to vehicle (dimethyl sulfoxide) reactions. IC50 values and curve fits were obtained using Prism (GraphPad Software).
For `Cc1nc(Nc2ccc(N3CCOCC3)cc2)nc(OC[C@H]2CC[C@H](O)CC2)c1F` [Example 265, (1R,4R)-4-(((5-fluoro-6-methyl-2-((4-morpholinophenyl)amino)pyrimidin-4-yl)oxy)methyl)cyclohexan-1-ol], the IC50 was greater than 400 nM. In the case of `FC(F)(F)CN1CCC(COc2nc(Nc3ccc(N4CCOCC4)cc3)ncc2Cl)CC1` [Example 114, 5-chloro-N-(4-morpholino-phenyl)-4-((1-(2,2,2-trifluoroethyl)piperidin-4-yl)methoxy) pyrimidin-2-amine], the IC50 is reported as greater than 400 nM. With `CC(C)n1cc(Nc2ncc(F)c(OCC3CCNCC3(F)F)n2)cn1` (centres unmarked) [Example 164, 4-((3,3-difluoropiperidin-4-yl)methoxy)-5-fluoro-N-(1-isopropyl-1H-pyrazol-4-yl)pyrimidin-2-amine] the IC50 was less than 50 nM. Work on `COc1cnc(Nc2ccc(N3CCOCC3)cc2)nc1OC[C@H]1CC[C@H](NCC(F)(F)F)CC1` [Example 105, 5-methoxy-N-(4-morpholino-phenyl)-4-(((1R,4R)-4-((2,2,2-trifluoroethyl)amino)cyclohexyl)methoxy) pyrimidin-2-amine] yielded an IC50 of 50 to 200 nM. Compound `CC(=O)N[C@H]1CC[C@H](COc2nc(Nc3cnn(C4CCOCC4)c3)ncc2F)CC1` [Example 193, N-((1R,4R)-4-(((5-fluoro-2-((1-(tetrahydro-2H-pyran-4-yl)-1H-pyrazol-4-yl)amino)pyrimidin-4-yl)oxy)methyl)cyclo-hexyl)acetamide] has an IC50 of less than 50 nM. `Cc1cnc(Nc2ccc(N3C[C@@H](C)O[C@@H](C)C3)cc2)nc1OCC1CCC(O)CC1` (stereo partly drawn) [Example 128, 4-(((2-((4-((2S,6R)-2,6-dimethylmorpholino)phenyl)amino)-5-methylpyrimidin-4-yl)oxy)methyl)cyclohexan-1-ol] gave an IC50 of less than 50 nM. `NC[C@H]1CC[C@H](COc2nc(Nc3ccc(N4CCOCC4)cc3)ncc2Cl)CC1` [Example 14, 4-(((1R,4R)-4-(aminomethyl)cyclohexyl)methoxy)-5-chloro-N-(4-morpholinophenyl) pyrimidin-2-amine] gave an IC50 of less than 50 nM. Compound `Cc1nn(C(C)C)cc1Nc1ncc(F)c(OC[C@H]2CC[C@H](NC(=O)C(F)(F)F)CC2)n1` [Example 211, 2,2,2-trifluoro-N-((1R,4R)-4-(((5-fluoro-2-((1-isopropyl-3-methyl-1H-pyrazol-4-yl)amino)pyrimidin-4-yl)oxy)methyl)cyclohexyl) acetamide] has an IC50 of less than 50 nM. Work on `CC(C)(C#N)n1cc(Nc2ncc(F)c(OC[C@H]3CC[C@H](O)CC3)n2)cn1` [Example 221] yielded an IC50 of 50 to 200 nM. For `C[C@@H]1CN(c2ccc(Nc3ncc(F)c(OC[C@@H]4CCC[C@@H](O)C4)n3)cc2)C[C@H](C)O1` [Example 249, (1R,3R)-3-(((2-((4-((2S,6R)-2,6-dimethylmorpholino)phenyl)amino)-5-fluoropyrimidin-4-yl)oxy)methyl)cyclohexan-1-ol], the IC50 was less than 50 nM. With `Fc1cnc(Nc2ccc(N3CCOCC3)cc2)nc1OCC1CCNCC1F` (centres unmarked) [Example 166, 5-fluoro-4-((3-fluoropiperidin-4-yl)methoxy)-N-(4-morpholinophenyl) pyrimidin-2-amine] the IC50 was less than 50 nM. `CCN1CCN(c2ccc(Nc3ncc(Cl)c(OCC4CCC(O)CC4)n3)nc2)CC1` (centres unmarked) [Example 132, 4-(((5-chloro-2-((5-(4-ethylpiperazin-1-yl)pyridin-2-yl)amino)pyrimidin-4-yl)oxy)methyl)cyclohexan-1-ol] showed an IC50 of 50 to 200 nM. With `N[C@H]1CC[C@H](COc2ccnc(Nc3ccc(N4CCOCC4)cc3)n2)CC1` [Example 2, 4-(((1R,4R)-4-aminocyclohexyl)methoxy)-N-(4-morpholinophenyl) pyrimidin-2-amine] the IC50 was less than 50 nM. Compound `Cc1nn(C(C)(C)C#N)cc1Nc1ncc(F)c(OCC2CCC(O)(C(F)(F)F)CC2)n1` (centres unmarked) [Example 262, 2-(4-((5-fluoro-4-((4-hydroxy-4-(trifluoromethyl)cyclohexyl)methoxy)pyrimidin-2-yl)amino)-3-methyl-1H-pyrazol-1-yl)-2-methylpropanenitrile] has an IC50 of 50 to 200 nM. With `CN[C@H]1CC[C@H](COc2nc(Nc3cn(C(C)(C)C#N)nc3C)ncc2Cl)CC1` [Example 39, 2-(4-((5-chloro-4-(((1R,4R)-4-(methylamino)cyclo-hexyl)methoxy)py-rimidin-2-yl)amino)-3-methyl-1H-pyrazol-1-yl)-2-methylpropanenitrile] the IC50 was less than 50 nM. For `Cc1nn(C(C)(C)C#N)cc1Nc1ncc(Cl)c(OCC2CCN(C)CC2)n1` [Example 57, 2-(4-((5-chloro-4-((1-methylpiperidin-4-yl)methoxy)pyrimidin-2-yl)amino)-3-methyl-1H-pyrazol-1-yl)-2-methylpropanenitrile], the IC50 was 50 to 200 nM. In the case of `c1cc(OCC2CCNCC2)nc(Nc2ccc(N3CCOCC3)cc2)n1` [Example 17, N-(4-morpholinophenyl)-4-(piperidin-4-ylmethoxy)pyrimidin-2-amine], the IC50 is reported as 200 to 400 nM. For `Cc1nn(C(C)(C)C#N)cc1Nc1ncc(Cl)c(OCC2CC(F)(F)C2)n1` [Example 154, 2-(4-((5-chloro-4-((3,3-difluorocyclobutyl)methoxy)pyrimidin-2-yl)amino)-3-methyl-1H-pyrazol-1-yl)-2-methylpropanenitrile], the IC50 was less than 50 nM. Work on `CC(=O)N[C@H]1CC[C@H](COc2nc(Nc3cn(C(C)(C)C#N)nc3C)ncc2Cl)CC1` [Example 81, N-((1R,4R)-4-(((5-chloro-2-((1-(2-cyanopropan-2-yl)-3-methyl-1H-pyrazol-4-yl)amino)pyrimidin-4-yl)oxy)methyl)cyclo-hexyl)acetamide] yielded an IC50 of less than 50 nM. `C[C@@H]1CN(c2ccc(Nc3ncc(F)c(OCC4CCNCC4F)n3)cc2)C[C@H](C)O1` (single isomer, unassigned) [Example 169] showed an IC50 of 50 to 200 nM. `CC(=O)N[C@H]1CC[C@H](COc2ccnc(Nc3cnn(C(C)C)c3)n2)CC1` [Example 76, N-((1R,4R)-4-(((2-((1-isopropyl-1H-pyrazol-4-yl)amino)pyrimidin-4-yl)oxy)methyl)cyclo-hexyl)acetamide] was tested, and the IC50 was 50 to 200 nM. Work on `C[C@@H]1CN(c2ccc(Nc3ncc(F)c(OCC4CCNCC4F)n3)cc2)C[C@H](C)O1` (single isomer, unassigned) [Example 168] yielded an IC50 of 50 to 200 nM. `COCCn1cc(Nc2ncc(F)c(OC[C@H]3CC[C@H](NC(C)=O)CC3)n2)cn1` [Example 191, N-((1R,4R)-4-(((5-fluoro-2-((1-(2-methoxyethyl)-1H-pyrazol-4-yl)amino)pyrimidin-4-yl)oxy)methyl)cyclo-hexyl)acetamide] showed an IC50 of less than 50 nM. `CC(=O)NC12C3C4C1C1C2C3C41COc1ccnc(Nc2ccc(N3C[C@@H](C)O[C@@H](C)C3)cc2)n1` (stereo partly drawn) [Example 79, N-(4-(((2-((4-((2S,6R)-2,6-dimethylmorpholino)phenyl)amino)py-rimidin-4-yl)oxy)methyl)cuban-1-yl)acetamide] showed an IC50 of 200 to 400 nM. With `N[C@H]1CC[C@H](COc2nc(Nc3ccc(N4CCOCC4)cc3)ncc2F)CC1` [Example 10, 4-(((1R,4R)-4-aminocyclohexyl)methoxy)-5-fluoro-N-(4-morpholinophenyl) pyrimidin-2-amine] the IC50 was less than 50 nM. For `O=C(N1CCC(COc2nc(Nc3ccc(N4CCOCC4)cc3)ncc2Cl)CC1)C(F)(F)F` [Example 112, 1-(4-(((5-chloro-2-((4-morpholino-phenyl)amino)pyrimidin-4-yl)oxy)methyl)piperidin-1-yl)-2,2,2-trifluoro-ethan-1-one], the IC50 was 50 to 200 nM.
